Values quoted from earlier work, collected in patent publication US20140012157A1, “Monobody Sensors for Monitoring Neuromuscular Blockade” (priority 2007, published 2014).

Columns and labels:
[1] = manufacturer's recommended intubation dose
[2] = PTC of 1 measured; from t=18.8−6.46√PTC
[3] = tested on: isolated cat anterior tibialis and sartorius muscles

| Compound | 2×ED 95 dose (double the dose that is effective for 95% of the population) [1] | time until return of the TOF [2] | receptors that had to be blocked by the antagonist before block was noticeable [3] | receptors that had to be blocked for near complete blockade [3] |
| --- | --- | --- | --- | --- |
| C=CC[N+]1([C@H]2C[C@H]3[C@@H]4CC[C@H]5C[C@H](O)[C@@H](N6CCOCC6)C[C@]5(C)[C@H]4CC[C@]3(C)[C@H]2OC(C)=O)CCCC1 [rocuronium] | 0.6 mg/kg | 12.34 min |  |  |
| COc1cc2c3cc1Oc1cc(ccc1O)C[C@@H]1c4c(cc(OC)c(O)c4Oc4ccc(cc4)C[C@@H]3N(C)CC2)CC[N+]1(C)C [tubocurarine] |  |  | 76% | 92% |
